What was measured:
α2 (non-selective) = assay: In vitro radioligand binding assay, α2 (non-selective), [3H]RX 821002; set-up: concentration or dose not given beside the values; settings: rat cerebral cortex membranes
Experimental: (§1) Certain compounds were tested by in vitro binding assays using standard procedures. […] These receptors and assays are well known to those skilled in the art, as exemplified by the following: Abramovitz, M. et al. (2000), Biochem. Biophys. Acta., 1483: 285-293 (EP4, IP (PGI2)); Aharony, D. et al. (1993), Mol. Pharmacol., 44: 356-363 (NK2); Ardati, A. et al. (1997), Mol. Pharmacol., 51: 816-824 (NOP (ORL1)); Bignon, E. et al. (1999), J. Pharmacol. Exp. Ther. 289: 742-751 (CCK1 (CCKA)); Bloomquist, B. T. et al. (1998), Biochem. Biophys. Res. Commun., 243: 474-479 (GAL2); Brockhaus, M. et al. (1990), Proc. Natl. Acad. Sci. U.S.A., 87: 3127-3131 (TNF-α); Brown, G. B. (1986), J. Neurosci., 6: 2064-2070 (Na+ channel (site 2)); Buchan, K. W. et al. (1994), Brit. J. Pharmacol., 112: 1251-1257 (ETA); Cesura, A. M. et al. (1990), Mol. Pharmacol., 37: 358-366 (MAO-A); Choi, D. S. et al. (1994), FEBS Lett., 352: 393-399 (5-HT2B); Clark, A. F. et al. (1996), Invest. Ophtalmol. Vis. Sci., 37: 805-813 (GR); Couvineau, A. et al. (1985), Biochem. J., 231: 139-143 (VPAC1 (VIP1)); Dorje, F. et al. (1991), J. Pharmacol. Exp. Ther., 256: 727-733 (M1, M2, M3, M4); Ferry, G. et al. (2001), Eur. J. Pharmacol., 417: 77-89 (PPARγ); Fuchs, S. et al. (2001), Mol. Med., 7: 115-124 (ETB); Fuhlendorff, J. et al. (1990), Proc. Natl. Acad. Sci. U.S.A., 87: 182-186 (Y2); Ganapathy M E. et al. (1999), J. Pharmacol. Exp. Ther., 289: 251-260 (sigma (non-selective)); Gopalakrishnan, M. et al. (1996), J. Pharmacol. Exp. Ther., 276: 289-297 (N neuronal α4β2); Greengrass, P. and Bremner, R. (1979), Eur. J. Pharmacol., 55: 323-326 (α1 (non-selective)); Grandy, D. K. et al. (1989), Proc. Natl. Acad. Sci. U.S.A., 86: 9762-9766 (D25); Guard, S. et al. (1993), Eur. J. Pharmacol., 240:177-184 (BB (non-selective)); Heuillet, E. et al. (1993), J. Neurochem., 60: 868-876 (NK1, P2X); Hope, A. G. et al. (1996), Brit. J. Pharmacol., 118: 1237-1245 (5-HT3); Hoyer, D. et al. (1985), Eur. J. Pharmacol., 118: 1-12 (5-HT1B); Hugues, M. et al. (1982), J. Biol. Chem., 257: 2762-2769 (5-HT2A, SKCa channel); Joseph, S. S. et al. (2004), Naun.-Sch. Arch. Pharm., 369: 525-532 (β2); Le, M. T. et al. (2005), Eur. J. Pharmacol., 513: 35-45 (AT1); Le Fur, G. et al. (1983), Life Sci., 33: 449-457) (BZD (peripheral); Lee, Y. M. et al. (1993), J. Biol. Chem., 268: 8164-8169 (CCK2 (CCKB)); Leurs, R. et al. (1994), Brit. J. Pharmacol., 112: 847-854 (H2); Levin, M. C. et al. (2002), J. Biol. Chem., 277: 30429-30435 (11); Lewin, A. H. et al. (1989), Mol. Pharmacol., 35: 189-194 (Cl− channel (GABA-gated)); Lukas, R. J. (1986), J. Neurochem., 46: 1936-1941 (N muscle-type); Luthin, D. R. et al. (1995), Mol. Pharmacol., 47: 307-313; (A2A); Mackenzie, R. G. et al. (1994), Eur. J. Pharmacol., 266: 79-85 (D3); Mulheron, J. G. et al. (1994), J. Biol. Chem., 269: 12954-12962 (5-HT1A); Meng, F. et al. (1993), Proc. Natl. Acad. Sci. U.S.A., 90: 9954-9958 (κ (KOP)); Monsma, F. J. et al. (1993), Mol. Pharmacol., 43: 320-327 (5-HT6); Neote, K. et al. (1993), Cell, 72: 415-425 (CCR1); Pacholczyk, T. et al. (1991), Nature, 350: 350-354 (sst (non-selective, norepinephrine transporter)); Peralta, E. G. et al. (1987), Embo. J., 6: 3923-3929 (M3); Pristupa, Z. B. et al. (1994), Mol. Pharmacol., 45: 125-135 (dopamine transporter); Pruneau, D. et al. (1998), Brit. J. Pharmacol., 125: 365-372 (B2); Rees, S. et al. (1994), FEBS Lett., 355: 242-246 (5-HT5a); Reynolds, I. J. et al. (1986), J. Pharmacol. Exp. Ther., 237: 731-738 (Ca2+ channel (L, verapamil site)); Rinaldi-Carmona, M. et al. (1996), J. Pharmacol. Exp. Ther., 278: 871-878 (CB1); Salvatore, C. A. et al. (1993), Proc. Natl. Acad. Sci. U.S.A., 90: 10365-10369 (A3); Sarau, H. M. et al. (1997), J. Pharmacol. Exp. Ther., 281: 1303-1311 (NK3); Schioth, H. B. et al. (1997), Neuropeptides, 31: 565-571 (MC4); Sharples, C. […]

5-HT7 = molecular target: T1, 5-HT7 (Homo sapiens, UniProt P34969); assay: In vitro radioligand binding assay, 5-HT7, [3H]LSD; set-up: concentration or dose not given beside the values; settings: human recombinant (CHO cells)
T1 construct: expressed in transfected cells; host or cells: CHO cells
Experimental: as §1

T1 sequence (P34969 whole entry): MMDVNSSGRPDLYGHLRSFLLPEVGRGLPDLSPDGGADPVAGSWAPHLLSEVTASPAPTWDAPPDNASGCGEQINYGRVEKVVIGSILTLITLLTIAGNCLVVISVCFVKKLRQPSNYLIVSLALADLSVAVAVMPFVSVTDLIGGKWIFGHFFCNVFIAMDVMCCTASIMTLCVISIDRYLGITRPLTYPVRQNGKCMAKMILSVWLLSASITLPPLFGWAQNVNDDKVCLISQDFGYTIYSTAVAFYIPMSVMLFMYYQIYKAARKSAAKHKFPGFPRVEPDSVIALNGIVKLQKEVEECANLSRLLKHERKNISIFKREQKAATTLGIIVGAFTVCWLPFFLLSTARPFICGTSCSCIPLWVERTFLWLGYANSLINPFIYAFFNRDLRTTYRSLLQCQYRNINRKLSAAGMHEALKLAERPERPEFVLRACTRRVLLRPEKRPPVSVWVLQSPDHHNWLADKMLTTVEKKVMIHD

| Structure (SMILES) | α2 percent inhibition of specific binding (α2 (non-selective)) [%] | 5HT7 percent inhibition of specific binding (5-HT7) [%] |
| --- | --- | --- |
| Fc1ccc2c(c1)CCO[C@H]2[C@@H]1CCCN1 [Compound I-9, (S)-2-((R)-6-fluoroisochroman-1-yl)pyrrolidine] | 91 | 80 |
| Clc1ccc2c(c1)[C@H]([C@@H]1CCCN1)OCC2 [Compound I-29, (S)-2-((R)-7-chloroisochroman-1-yl)pyrrolidine] | 97 | 52 |
| Fc1cccc2c1[C@H]([C@@H]1CCCN1)OCC2 [Compound I-1, (S)-2-((R)-8-fluoroisochroman-1-yl)pyrrolidine] | 95 | 88 |
| Fc1ccc2c(c1)[C@H]([C@@H]1CCCN1)OCC2 [Compound I-5, (2S)-2-((R)-7-fluoroisochroman-1-yl)pyrrolidine] | 96 | 60 |
| Fc1cccc2c1CCO[C@@H]2[C@H]1CCN1 [Compound I-96, (R)-2-((S)-5-fluoroisochroman-1-yl)azetidine] | 81 | 69 |
| Fc1cccc2c1CCO[C@@H]2[C@@H]1CCN1 [Compound I-94, (S)-2-((S)-5-fluoroisochroman-1-yl)azetidine] | – | 74 |
| Fc1cccc2c1[C@H]([C@@H]1CCN1)OCC2 [Compound I-83, (S)-2-((R)-8-fluoroisochroman-1-yl)azetidine] | 77 | 99 |
| Fc1ccc2c(c1)CCO[C@H]2[C@@H]1CCN1 [Compound I-90, (S)-2-((R)-6-fluoroisochroman-1-yl)azetidine] | 71 | 96 |

Source: patent publication US10336732B2, “1-heterocyclyl isochromanyl compounds and analogs for treating CNS disorders” (Sunovion Pharmaceuticals Inc., priority 2015, dated 2019)
